This is an account of results in patent publication US11318115B2, “Oral pharmaceutical composition of Tecovirimat and preparation method thereof” (priority 2016, dated 2022).

The conditions of data set [1]: cited from earlier work.
The conditions of data set [2]: cited from earlier work. The source holds these as a separate data set.
Data set [3] can be described thus: In vitro dissolution in water (ChP 2015, 0931 Method II, 100 rpm). The following applies: within 60 min, 1000 ml water, FIG. 2. Format: physicochemical. The protocol: Experimental method: 1000 ml water was used as dissolution medium, and according to the Dissolution Test (Pharmacopoeia of the People's Republic of China (2015 Edition), General Notices, 0931 Method II), the operation was carried out at a rotation rate of 100 rpm, and a solution (5 ml) was taken at 5, 10, 15, 30, 45, and 60 min, respectively, and was filtrated through a 0.45 μm microporous membrane, to obtain a test solution; and Tecovirimat (bulk drug powder, 5 mg) as a reference was accurately weighed, and placed in a 100 ml volumetric flask, and the medium for dissolution was added to a final volume of 100 ml, thereby obtaining a reference solution. By high performance liquid chromatography, the peak area of the test solution and the reference solution were measured at 224 nm. The dissolution amounts at different time points was calculated by an external standard method, and the cumulative dissolution curves were plotted.

The next data set in a line: physchem. Format: physicochemical. The following applies: aqueous with cosolvent or surfactant or cyclodextrin, thermodynamic from solid. The protocol:
Excess amounts of Tecovirimat (bulk drug powder) was added to an aqueous solution comprising meglumine and cyclodextrin at different ratios relative to each other to form a suspension. The suspension was placed in a constant-temperature incubation shaker, and was shaken at a temperature of 25±1° C., 37±1° C. and 60±1° C. for 72 h. After reaching equilibrium, the suspension was filtered through a 0.45 μm hydrophilic filter membrane to obtain a filtrate. After the filtrate was properly diluted with an acetonitrile-water (50:50, v/v) solution, the absorbance was measured at 224 nm, and the solubility of Tecovirimat was calculated. The corresponding solubility curve was plotted by using the solubility of the drug as the ordinate, and using the concentration of the cyclodextrin and/or meglumine as the abscissa.

In brackets after ≈: the same amount, converted by molar mass. Read-outs that look alike come from different tables or passages of the source.

On to `O=C(NN1C(=O)[C@@H]2[C@@H]3C=C[C@@H]([C@H]4C[C@@H]34)[C@@H]2C1=O)c1ccc(C(F)(F)F)cc1` [Tecovirimat, 4-trifluoromethyl-N-(3,3a, 4,4a, 5,5a, 6,6a-octahydro-1,3-dioxo-4,6-ethenocycloprop [f]isoindol-2 (1H)-yl)-benzamide], for which the water solubility result in data set [1] was “less than 0.003 mg/ml”. In addition, the solubility in data set [2] (20%-40% (w/v) hydroxypropyl-β-cyclodextrin (HP-β-CD), 37° C.) was 1.5 to 11 mg/mL; in the data set “physchem” (25 °C, cyclodextrin 20% (w/v) to 40% (w/v) alone, 25° C., FIG. 1(A), read-out: solubility of Tecovirimat in water), 5 to 15 mg/mL (≈ 13.3 to 39.9 mM); in “physchem” (25 °C, meglumine 2% (w/v) to 10% (w/v) alone, 25° C., FIG. 1(B), read-out: solubility of Tecovirimat in water) it was 2 to 7 mg/mL (≈ 5.31 to 18.6 mM); in the data set “physchem” (25 °C, meglumine 5% (w/v) plus cyclodextrin 20% (w/v) to 40% (w/v), 25° C., FIG. 1(C), read-out: solubility of Tecovirimat in water), 20 to 80 mg/mL; in “physchem” (37 °C, cyclodextrin 20% (w/v) to 40% (w/v) alone, 37° C., FIG. 1(A), read-out: solubility of Tecovirimat in water) it was 5 to 18 mg/mL (≈ 13.3 to 47.8 mM); in the data set “physchem” (37 °C, meglumine 2% (w/v) to 10% (w/v) alone, 37° C., FIG. 1(B), read-out: solubility of Tecovirimat in water) it was 2 to 9 mg/mL (≈ 5.31 to 23.9 mM). The solubility in the data set “physchem” (37 °C, meglumine 5% (w/v) plus cyclodextrin 20% (w/v) to 40% (w/v), 37° C., FIG. 1(C), read-out: solubility of Tecovirimat in water) is 30 to 100 mg/mL; in “physchem” (60 °C, cyclodextrin 20% (w/v) to 40% (w/v) alone, 60° C., FIG. 1(A), read-out: solubility of Tecovirimat in water), 5 to 20 mg/mL (≈ 13.3 to 53.1 mM); in “physchem” (60 °C, meglumine 2% (w/v) to 10% (w/v) alone, 60° C., FIG. 1(B), read-out: solubility of Tecovirimat in water), 2 to 10 mg/mL (≈ 5.31 to 26.6 mM); in the data set “physchem” (60 °C, meglumine 5% (w/v) plus cyclodextrin 20% (w/v) to 40% (w/v), 60° C., FIG. 1(C), read-out: solubility of Tecovirimat in water), 50 to 150 mg/mL; in the data set “physchem” (ternary solubilizing composition: Tecovirimat, cyclodextrin, additive (e.g. meglumine), read-out: maximal solubility) it was at most 152 mg/mL. Also, the maximal solubility in data set [2] (40% (w/v) HP-β-CD, 70° C.) is 21.23 mg/mL. For the same compound, in data set [2] (HP-β-CD plus PEG400 or Tween 80), the “effect of cosolvent (PEG400) or nonionic surfactant (Tween 80) on solubility in HP-β-CD” value was “cannot further improve the solubility”. The compound also had a dissolution in data set [3] below 5%.

Usually solubility stands for the dissolved amount per volume that the medium holds.
